Results reported in EPA's aquatic toxicity sets.

Tests used:
[1] = system: Pimephales promelas; test: 96 h LC50 (-log10 mol/L); higher = more toxic
[2] = system: Daphnia magna; test: 48 h LC50 (-log10 mol/L); higher = more toxic
[3] = system: Tetrahymena pyriformis; test: 48 h IGC50 (-log10 mol/L); higher = more toxic

Row | Compound | 96 h LC50 (-log10 mol/L) [1] | 48 h LC50 (-log10 mol/L) [2] | 48 h IGC50 (-log10 mol/L) [3]
1 | ClC1=C(Cl)[C@]2(Cl)[C@@H]3[C@@H]4C[C@@H]([C@H]5O[C@@H]45)[C@@H]3[C@@]1(Cl)C2(Cl)Cl | 7.21 | 6.51 | –
2 | CCCCOC(=O)c1ccccc1C(=O)OCc1ccccc1 | 5.22 | 5.19 | –
3 | O=C(O)c1ccccc1O | – | 3.07 | 2.49
4 | CNC(=S)NC | – | 3.83 | 1.89
5 | ClCC(Cl)CCl | 3.41 | 3.65 | –
6 | Cc1c(Cl)cccc1[N+](=O)[O-] | – | 4.61 | 3.68
7 | Nc1c(Cl)c(Cl)nc(C(=O)O)c1Cl | 3.64 | 3.64 | –
8 | NC(N)=S | – | 3.88 | 1.68
9 | c1cc2c3c(cccc3c1)CC2 | 4.98 | 3.58 | –
10 | Clc1ccc(C(c2ccc(Cl)cc2)C(Cl)(Cl)Cl)cc1 | 7.27 | 8.27 | –
11 | CC(C)c1ccc2c(c1)CC[C@H]1[C@](C)(C(=O)O)CCC[C@]21C | 4.97 | 4.56 | –
12 | CCNCC | 1.93 | 3.12 | –
13 | C=CC#N | 3.57 | 3.78 | –
14 | CCNC(N)=S | – | 3.94 | 1.87
15 | CCOP(=S)(OCC)SCSCC | 6.02 | 7.13 | –
16 | CNC(=O)ON=C(C)SC | 4.89 | 6.96 | –
17 | ClCCl | 2.42 | 2.66 | –
18 | Clc1ccc(Cl)cc1 | – | 4.14 | 3.53
19 | Cc1ccc([N+](=O)[O-])cc1C | – | 3.98 | 3.59
20 | ClC(Cl)=C(Cl)Cl | 3.96 | 4 | –
21 | CCOC(=O)CC(SP(=S)(OC)OC)C(=O)OCC (configuration not stated) | 4.42 | 8.35 | –
22 | S=C=NCc1ccccc1 | – | 6.54 | 5.74
23 | CCCCc1ccccc1 | – | 5.55 | 4.25

Row | Compound | 96 h LC50 (-log10 mol/L) [1] | 48 h LC50 (-log10 mol/L) [2] | 48 h IGC50 (-log10 mol/L) [3]
24 | S=C=NCCc1ccccc1 | – | 6.1 | 5.54
25 | c1ccc2c(c1)oc1ccccc12 | – | 5 | 4.42
26 | Nc1ccc(Cl)cc1Cl | – | 5.43 | 3.56
27 | CC(C)c1ccccc1 | – | 3.77 | 3.69
28 | Cc1ccc(O)c(C)c1 | – | 4.76 | 3.14
29 | CCCCN=C=S | – | 5.43 | 4.72
30 | CCCCNC(N)=S | – | 3.85 | 2.81
31 | Cc1ccc(C)cc1 | – | 3.52 | 3.25
32 | Cc1ccc2ccccc2c1 | – | 4.98 | 4.08
33 | S=C=Nc1ccc(N=C=S)cc1 | – | 6.4 | 6.35
34 | CCOC(C)=O | – | 2.09 | 1.7
35 | Cc1ccccc1N | – | 5.31 | 2.84
36 | CCOC(=O)CC | – | 2.83 | 2.06
37 | Cc1cc(Cl)ccc1O | – | 5.69 | 3.7
38 | CN(C)c1ccccc1 | – | 4.38 | 3.28
39 | Nc1cc(Cl)ccc1Cl | – | 4.74 | 3.58
40 | O=[N+]([O-])c1ccc(O)cc1 | – | 4.02 | 4.42
41 | O=Cc1ccccc1 | – | 3.98 | 2.8
42 | CCNc1nc(NCC)nc(SC)n1 | – | 3.63 | –
43 | Nc1nc(=S)c2[nH]cnc2[nH]1 | – | 4.01 | –
44 | CNC(N)=S | – | 3.98 | 1.63
45 | CCNc1nc(Cl)nc(NCC)n1 | – | 3.33 | –
46 | COC1=CC(=O)C[C@@H](C)[C@]12Oc1c(Cl)c(OC)cc(OC)c1C2=O | – | 2.51 | –

Row | Compound | 96 h LC50 (-log10 mol/L) [1] | 48 h LC50 (-log10 mol/L) [2] | 48 h IGC50 (-log10 mol/L) [3]
47 | c1ccncc1 | – | 1.81 | 1.68
48 | O=[N+]([O-])c1cccc(Cl)c1Cl | – | 4.62 | 4.07
49 | CC(C)CCCCCCCCCCN(CCCCCCCCCCC(C)C)CCCCCCCCCCC(C)C | – | 5.96 | –
50 | COC(=O)c1ccccc1C(=O)OC | – | 3.77 | –
51 | Nc1cc(Cl)c(Cl)c(Cl)c1Cl | – | 5.56 | –
52 | CSc1nc(NC2CC2)nc(NC(C)(C)C)n1 | – | 4.49 | –
53 | Fc1ccc([C@@H]2CCNC[C@H]2COc2ccc3c(c2)OCO3)cc1 | – | 5.75 | –
54 | CCCN(CCC)C(=O)SCC | – | 4.61 | –
55 | ClCC(Cl)(Cl)Cl | – | 3.84 | –
56 | CC(C)(C)CC(C)(C)c1ccc(O)cc1 | – | 6.36 | –
57 | OCCCl | – | 2.58 | 1.58
58 | C/C=C(\C)C(=O)O[C@H]1C[C@@H](OC(C)=O)[C@@]2(C(=O)OC)CO[C@H]3[C@@H](O)[C@@](C)([C@]45O[C@@]4(C)[C@H]4C[C@@H]5O[C@@H]5OC=C[C@@]54O)[C@H]4[C@]1(CO[C@]4(O)C(=O)OC)[C@@H]32 | – | 6.06 | –
59 | CO/C=C(/C(=O)OC)c1ccccc1Oc1cc(Oc2ccccc2C#N)ncn1 | – | 6.39 | –
60 | CN1CSC(=S)N(C)C1 | – | 5.47 | –
61 | Cc1nc(N(C)C)nc(OC(=O)N(C)C)c1C | – | 7.04 | –
62 | c1ccc2cnccc2c1 | – | 3.71 | –
63 | c1ccc2[nH]ccc2c1 | – | 5.07 | 3.21
64 | CC(C)(C)C(=O)Cl | – | 2.58 | –
65 | Cc1ncc2n1-c1ccc(Cl)cc1C(c1ccccc1F)=NC2 | – | 6.21 | –
66 | Clc1ccc(-c2ccccc2)cc1 | – | 5.63 | –
67 | COC(=O)C1=C(C)NC(C)=C(C(=O)OCC(C)C)C1c1ccccc1[N+](=O)[O-] (configuration not stated) | – | 4.07 | –
68 | Nc1cccc(Cl)c1 | – | 6.11 | –
69 | CCC(=O)O | – | 3.17 | 2.49

Row | Compound | 96 h LC50 (-log10 mol/L) [1] | 48 h LC50 (-log10 mol/L) [2] | 48 h IGC50 (-log10 mol/L) [3]
70 | CC1CCCCC1 | – | 4.82 | –
71 | Cc1cc(C)c(C)cc1C | – | 5.45 | –
72 | c1ccc2c(c1)ccc1ccccc12 | – | 5.41 | –
73 | CC(C)(C)NC(=O)[C@H]1CC[C@H]2[C@@H]3CC[C@H]4NC(=O)C=C[C@]4(C)[C@H]3CC[C@]12C | – | 4.25 | –
74 | CN(C)[C@@H]1C(=O)C(C(N)=O)=C(O)[C@@]2(O)C(=O)C3=C(O)c4c(O)ccc(Cl)c4[C@@](C)(O)[C@H]3C[C@@H]12 | – | 3.57 | –
75 | c1ccc2c(c1)cc1ccc3cccc4ccc2c1c34 | – | 6 | –
76 | CC1=CCC2CC1C2(C)C (configuration not stated) | – | 3.52 | –
77 | CO/N=C(/C(=O)OC)c1ccccc1CO/N=C(\C)c1cccc(C(F)(F)F)c1 | – | 5.74 | –
78 | Clc1cc(Cl)c(-c2cc(Cl)c(Cl)cc2Cl)cc1Cl | – | 8.44 | –
79 | c1ccc2c(c1)ccc1sc3ccccc3c12 | – | 6.03 | –
80 | O=P(Oc1ccccc1)(Oc1ccccc1)Oc1ccccc1 | – | 5.51 | 4.81
81 | COc1c(O)cc(Cl)c(Cl)c1Cl | – | 5.53 | –
82 | CCCC1COC(Cn2cncn2)(c2ccc(Cl)cc2Cl)O1 (configuration not stated) | – | 4.72 | –
83 | Oc1c(Cl)c(Cl)cc(Cl)c1Cl | – | 5.61 | 5.22
84 | CCc1nc(N)nc(N)c1-c1ccc(Cl)cc1 | – | 4.63 | –
85 | CC(=O)Nc1ccc(O)cc1 | – | 4.22 | 2.18
86 | COC(=O)Nc1cccc(OC(=O)Nc2cccc(C)c2)c1 | – | 4.65 | –
87 | CCOc1ccc2c(c1)C(C)=CC(C)(C)N2 | – | 5.04 | –
88 | CCS | – | 5.56 | –
89 | CC(C)(C)NCC(O)COc1cccc2c1C[C@H](O)[C@H](O)C2 (some centres not stated) | – | 3.28 | –
90 | CCCC(=O)Nc1ccc(OCC(O)CNC(C)C)c(C(C)=O)c1 (configuration not stated) | – | 3.82 | –
91 | Oc1ccc(-c2ccccc2)cc1 | – | 4.67 | 4.39
92 | c1ccsc1 | – | 2.42 | 1.56

Row | Compound | 96 h LC50 (-log10 mol/L) [1] | 48 h LC50 (-log10 mol/L) [2] | 48 h IGC50 (-log10 mol/L) [3]
93 | CN(C)C(N)=S | – | 3.39 | –
94 | ClCCOCCCl | – | 2.78 | –
95 | CBr | – | 4.63 | –
96 | CCCSc1ccc2nc(NC(=O)OC)[nH]c2c1 | – | 7.04 | –
97 | O=[N+]([O-])c1cc(Cl)cc(Cl)c1 | – | 4.43 | 4.13
98 | CC(F)(Cl)Cl | – | 3.58 | –
99 | O=C(N=C=S)c1ccccc1 | – | 4.93 | 3.1
100 | COc1cccc(N)c1 | – | 5.64 | –
101 | O=Cc1ccc(O)c(O)c1O | – | 3.67 | 3
102 | CN(C)C(=S)N(C)C | – | 2.23 | –
103 | NNC(=O)c1ccncc1 | – | 3.77 | –
104 | CSc1nc(N)nc(NC(C)(C)C)n1 | – | 4.29 | –
105 | CCNc1nc(Cl)nc(NC(C)(C)C#N)n1 | – | 6.45 | –
106 | Cc1c(OCC(F)(F)F)ccnc1CS(=O)c1nc2ccccc2[nH]1 (configuration not stated) | – | 4.22 | –
107 | CC(Cc1ccc(C(C)(C)C)cc1)CN1CCCCC1 (configuration not stated) | – | 5.72 | –
108 | COc1ccc(NC(=O)N(C)C)cc1Cl | – | 3.15 | –
109 | CCCCC(CC)C(=O)O (configuration not stated) | – | 3.08 | 3.08
110 | CCCCCCCCCC | – | 5.3 | –
111 | N/C(=N\N=C\c1ccc(Cl)cc1)N/N=C/c1ccc(Cl)cc1 | – | 6.65 | –
